Experimental data reported in patent US9986740B2, “Methods of identifying insect-TRPA1 modulators” (BRANDEIS UNIVERSITY, priority 2010, dated 2018).

Key:
Painless = target: T1, Painless (Drosophila melanogaster, UniProt Q9W0Y6); experiment: Larval neuromuscular junction electrophysiology, Painless expressed in motor neurons; type: cell-based; conditions: 500 μM, third instar larval muscles
T1 sequence (Q9W0Y6 1-913): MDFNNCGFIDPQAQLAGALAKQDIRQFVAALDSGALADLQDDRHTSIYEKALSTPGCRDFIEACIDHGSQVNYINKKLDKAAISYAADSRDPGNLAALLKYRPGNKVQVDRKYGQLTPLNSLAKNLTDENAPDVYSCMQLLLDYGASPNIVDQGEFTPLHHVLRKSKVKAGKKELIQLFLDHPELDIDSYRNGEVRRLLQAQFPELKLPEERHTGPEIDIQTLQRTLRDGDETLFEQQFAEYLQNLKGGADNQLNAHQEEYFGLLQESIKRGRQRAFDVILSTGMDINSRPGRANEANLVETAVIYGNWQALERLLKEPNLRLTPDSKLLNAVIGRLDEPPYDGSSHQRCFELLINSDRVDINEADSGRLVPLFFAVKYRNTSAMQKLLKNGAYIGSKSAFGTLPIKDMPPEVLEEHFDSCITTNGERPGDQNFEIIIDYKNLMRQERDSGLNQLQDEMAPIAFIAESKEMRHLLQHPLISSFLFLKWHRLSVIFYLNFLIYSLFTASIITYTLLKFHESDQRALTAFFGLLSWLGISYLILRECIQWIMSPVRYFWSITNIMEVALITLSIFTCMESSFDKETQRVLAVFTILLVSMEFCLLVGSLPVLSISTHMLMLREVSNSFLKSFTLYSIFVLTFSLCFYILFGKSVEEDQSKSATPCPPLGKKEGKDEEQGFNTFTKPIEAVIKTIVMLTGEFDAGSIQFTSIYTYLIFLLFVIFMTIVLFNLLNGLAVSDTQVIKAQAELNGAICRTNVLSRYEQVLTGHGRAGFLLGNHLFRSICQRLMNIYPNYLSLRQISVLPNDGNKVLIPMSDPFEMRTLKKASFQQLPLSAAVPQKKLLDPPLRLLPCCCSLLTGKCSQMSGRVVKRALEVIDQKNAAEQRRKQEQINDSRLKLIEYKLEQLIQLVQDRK

dTRPA1 = target: T2, dTRPA1 (Drosophila melanogaster, UniProt Q7Z020); experiment: Larval neuromuscular junction electrophysiology, dTRPA1 expressed in motor neurons; type: cell-based; conditions: third instar larval muscles
T2 sequence (Q7Z020 1-1197): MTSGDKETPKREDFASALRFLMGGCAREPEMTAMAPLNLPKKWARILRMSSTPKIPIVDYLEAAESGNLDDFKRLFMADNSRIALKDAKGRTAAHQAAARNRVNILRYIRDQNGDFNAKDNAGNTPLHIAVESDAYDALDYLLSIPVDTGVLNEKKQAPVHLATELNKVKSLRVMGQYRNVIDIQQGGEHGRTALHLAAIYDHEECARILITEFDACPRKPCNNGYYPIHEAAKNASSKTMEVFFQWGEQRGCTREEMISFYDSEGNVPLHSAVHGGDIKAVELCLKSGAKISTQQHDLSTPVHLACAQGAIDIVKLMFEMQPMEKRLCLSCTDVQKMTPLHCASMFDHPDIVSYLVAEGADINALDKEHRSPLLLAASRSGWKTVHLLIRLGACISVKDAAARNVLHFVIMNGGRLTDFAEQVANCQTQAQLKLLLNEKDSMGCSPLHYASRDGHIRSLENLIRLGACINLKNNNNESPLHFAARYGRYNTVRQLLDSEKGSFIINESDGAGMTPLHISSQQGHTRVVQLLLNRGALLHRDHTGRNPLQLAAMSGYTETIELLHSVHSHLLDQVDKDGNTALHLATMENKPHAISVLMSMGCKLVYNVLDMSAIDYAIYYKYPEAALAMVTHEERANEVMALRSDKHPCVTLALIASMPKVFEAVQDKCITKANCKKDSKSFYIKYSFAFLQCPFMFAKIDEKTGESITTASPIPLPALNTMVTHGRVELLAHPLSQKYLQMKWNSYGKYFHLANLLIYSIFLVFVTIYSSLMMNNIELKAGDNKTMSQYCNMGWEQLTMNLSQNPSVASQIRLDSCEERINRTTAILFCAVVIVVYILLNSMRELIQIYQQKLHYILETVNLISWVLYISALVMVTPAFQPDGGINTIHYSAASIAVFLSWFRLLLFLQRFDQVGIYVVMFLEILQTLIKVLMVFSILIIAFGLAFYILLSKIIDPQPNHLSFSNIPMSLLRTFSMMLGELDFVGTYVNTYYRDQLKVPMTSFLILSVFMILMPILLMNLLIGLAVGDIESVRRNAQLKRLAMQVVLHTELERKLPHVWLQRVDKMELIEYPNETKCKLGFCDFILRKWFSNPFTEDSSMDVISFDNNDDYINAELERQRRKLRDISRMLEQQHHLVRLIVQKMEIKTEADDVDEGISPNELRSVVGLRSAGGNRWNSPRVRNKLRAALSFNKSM

Drosophila flies = experiment: Proboscis extension response (PER) behavioral assay; type: in vivo, Drosophila melanogaster
uninjected oocytes = experiment: Two-electrode voltage clamping on uninjected oocytes; type: cell-based, Xenopus laevis; conditions: 3 mM AITC, 1 mM CA, 0.1 mM NMM

O=CC=Cc1ccccc1 [CA, cinnamaldehyde]
Induction of EJPs in OK371>Painless animals (Painless): does not induce
Excitatory junction potentials (EJPs) driven by dTRPA1-expressing motor neurons (dTRPA1): cinnamaldehyde-responsive
Effect on PER in dTrpA1 loss-of-function mutants (Drosophila flies; dTrpA1 loss-of-function mutants, ingestion permitted): no reduction
Acceptance on first offering (Drosophila flies; first of five tastant offerings): usually accepted
Effect on proboscis extension response (PER) / feeding (Drosophila flies; wild type flies, ingestion permitted, 350 mM sucrose with 2 mM AITC, 10 mM NMM or 6 mM CA): robustly inhibited
Response of uninjected oocytes (uninjected oocytes): did not respond
